Literature values in patent US5395974A, “Lewis acid catalyzed ammonolysis of nylon” (E. I. Du Pont de Nemours and Company, priority 1994, dated 1995).

Details: values in square brackets in the text

Compound: O=C(O)C(F)(F)F [CF3 CO2 --]
- pKa of the conjugate acid of the anion: 0.2
